According to patent US20250339385A1, “TOPICAL FORMULATION OF DIMETHYLCURCUMIN” (ANNJI PHARMACEUTICAL CO., LTD., priority 2021, published 2025):

Test: Solubility of API (Formula I) in aqueous system / solvents
Type: physicochemical
Description: When the API of Formula I is in the aqueous system, it forms crystals and precipitates out of solution. To investigate a compatible matrix that allows greater Formula I solubility, various systems containing Formula I were stored at room temperature for 24 hours and were examined under a polarized light microscope to observe the presence or absence of Formula I crystal precipitation.

In the case of dimethylcurcumin [Formula I], the “solubility of API in aqueous phase (aqueous system)” value (aqueous system) is reported as “practically insoluble” and the “solubility of API in diethylene glycol monoethyl ether” value (diethylene glycol monoethyl ether) is reported as “good solubility”.
